# Test results as given in ChEMBL document CHEMBL5696442, “Discovery of type II inhibitors of TGFβ-activated kinase 1 (TAK1) and mitogen-activated protein kinase kinase kinase kinase 2 (MAP4K2)” (J Med Chem, 2015).
# Active and inactive are the calls of the source. The rule behind the calls is not given here.
# Legend:
# [1] = target: T1, Mitogen-activated protein kinase kinase kinase 2 (Homo sapiens) (UniProt Q9Y2U5); assay: Inhibition of MAP3K2 Lys1 labeling site in human Huh-7 cell lysate at 1 uM by KiNativ Profiling analysis relative to control; type: subcellular
# T1 sequence (whole entry): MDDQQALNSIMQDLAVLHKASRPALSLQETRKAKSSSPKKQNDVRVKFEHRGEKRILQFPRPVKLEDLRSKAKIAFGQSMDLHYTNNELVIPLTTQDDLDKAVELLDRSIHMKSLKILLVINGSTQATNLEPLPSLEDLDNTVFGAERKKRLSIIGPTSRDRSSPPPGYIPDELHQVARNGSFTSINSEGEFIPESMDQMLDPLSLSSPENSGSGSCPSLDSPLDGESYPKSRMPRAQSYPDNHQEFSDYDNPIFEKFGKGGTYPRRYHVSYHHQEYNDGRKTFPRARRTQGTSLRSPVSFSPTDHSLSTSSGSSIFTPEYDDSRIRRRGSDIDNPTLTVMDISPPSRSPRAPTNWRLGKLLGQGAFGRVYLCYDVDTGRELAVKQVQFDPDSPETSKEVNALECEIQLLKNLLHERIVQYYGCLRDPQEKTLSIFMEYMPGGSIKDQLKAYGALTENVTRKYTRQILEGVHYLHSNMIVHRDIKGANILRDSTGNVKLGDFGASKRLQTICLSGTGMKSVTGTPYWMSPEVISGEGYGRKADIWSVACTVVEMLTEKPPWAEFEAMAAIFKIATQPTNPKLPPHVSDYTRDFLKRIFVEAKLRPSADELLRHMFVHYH
# [2] = target: Serine/threonine-protein kinase 24 (Homo sapiens) (UniProt Q9Y6E0); assay: Inhibition of MST3 Lys2 labeling site harbouring DIKAANVLLSEHGEVK in human Huh-7 cell lysate at 1 uM by KiNativ Profiling analysis relative to control; type: subcellular
# [3] = target: Dual specificity mitogen-activated protein kinase kinase; MEK1/2 (Homo sapiens) (UniProt P36507+Q02750); assay: Inhibition of MAP2K1/2 K2 labeling site in human Huh-7 cells at 1 uM by KiNativ Profiling analysis relative to control; type: cell-based
# [4] = target: T2, Dual specificity mitogen-activated protein kinase kinase 5 (Homo sapiens) (UniProt Q13163); assay: Inhibition of MAP2K5 Lys2 labeling site in human A-375 cells at 5 uM by KiNativ Profiling analysis relative to control; type: cell-based
# T2 sequence (whole entry): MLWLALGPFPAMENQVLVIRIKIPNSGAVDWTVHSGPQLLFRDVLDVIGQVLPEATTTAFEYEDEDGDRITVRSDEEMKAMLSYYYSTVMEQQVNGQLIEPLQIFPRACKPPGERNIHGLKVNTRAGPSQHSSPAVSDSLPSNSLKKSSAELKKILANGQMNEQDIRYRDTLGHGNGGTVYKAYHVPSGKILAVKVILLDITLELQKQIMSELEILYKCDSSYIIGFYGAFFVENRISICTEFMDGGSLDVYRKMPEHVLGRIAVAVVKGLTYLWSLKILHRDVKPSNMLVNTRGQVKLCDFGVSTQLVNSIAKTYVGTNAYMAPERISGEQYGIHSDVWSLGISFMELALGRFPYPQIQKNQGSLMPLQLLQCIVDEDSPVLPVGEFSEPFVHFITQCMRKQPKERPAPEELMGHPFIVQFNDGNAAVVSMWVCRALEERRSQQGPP
# [5] = target: Calcium/calmodulin-dependent protein kinase type II subunit delta (Homo sapiens) (UniProt Q13557); assay: Inhibition of CamK2d K1 labeling site harbouring IPTGQEYAAKIINTK in human Huh-7 cells at 10 uM by KiNativ Profiling analysis relative to control; type: cell-based
# [6] = target: Dual specificity mitogen-activated protein kinase kinase 1 (Homo sapiens) (UniProt Q02750); assay: Inhibition of MAP2K1 Lys1 labeling site in human A-375 cells at 0.05 uM by KiNativ Profiling analysis relative to control; type: cell-based
# [7] = target: T3, Mitogen-activated protein kinase kinase kinase 6 (Homo sapiens) (UniProt O95382); assay: Inhibition of MAP3K6 Lys1 labeling site harbouring IAIKEIPERDSR in human A-375 cells at 5 uM by KiNativ Profiling analysis relative to control; type: cell-based
# T3 sequence (whole entry): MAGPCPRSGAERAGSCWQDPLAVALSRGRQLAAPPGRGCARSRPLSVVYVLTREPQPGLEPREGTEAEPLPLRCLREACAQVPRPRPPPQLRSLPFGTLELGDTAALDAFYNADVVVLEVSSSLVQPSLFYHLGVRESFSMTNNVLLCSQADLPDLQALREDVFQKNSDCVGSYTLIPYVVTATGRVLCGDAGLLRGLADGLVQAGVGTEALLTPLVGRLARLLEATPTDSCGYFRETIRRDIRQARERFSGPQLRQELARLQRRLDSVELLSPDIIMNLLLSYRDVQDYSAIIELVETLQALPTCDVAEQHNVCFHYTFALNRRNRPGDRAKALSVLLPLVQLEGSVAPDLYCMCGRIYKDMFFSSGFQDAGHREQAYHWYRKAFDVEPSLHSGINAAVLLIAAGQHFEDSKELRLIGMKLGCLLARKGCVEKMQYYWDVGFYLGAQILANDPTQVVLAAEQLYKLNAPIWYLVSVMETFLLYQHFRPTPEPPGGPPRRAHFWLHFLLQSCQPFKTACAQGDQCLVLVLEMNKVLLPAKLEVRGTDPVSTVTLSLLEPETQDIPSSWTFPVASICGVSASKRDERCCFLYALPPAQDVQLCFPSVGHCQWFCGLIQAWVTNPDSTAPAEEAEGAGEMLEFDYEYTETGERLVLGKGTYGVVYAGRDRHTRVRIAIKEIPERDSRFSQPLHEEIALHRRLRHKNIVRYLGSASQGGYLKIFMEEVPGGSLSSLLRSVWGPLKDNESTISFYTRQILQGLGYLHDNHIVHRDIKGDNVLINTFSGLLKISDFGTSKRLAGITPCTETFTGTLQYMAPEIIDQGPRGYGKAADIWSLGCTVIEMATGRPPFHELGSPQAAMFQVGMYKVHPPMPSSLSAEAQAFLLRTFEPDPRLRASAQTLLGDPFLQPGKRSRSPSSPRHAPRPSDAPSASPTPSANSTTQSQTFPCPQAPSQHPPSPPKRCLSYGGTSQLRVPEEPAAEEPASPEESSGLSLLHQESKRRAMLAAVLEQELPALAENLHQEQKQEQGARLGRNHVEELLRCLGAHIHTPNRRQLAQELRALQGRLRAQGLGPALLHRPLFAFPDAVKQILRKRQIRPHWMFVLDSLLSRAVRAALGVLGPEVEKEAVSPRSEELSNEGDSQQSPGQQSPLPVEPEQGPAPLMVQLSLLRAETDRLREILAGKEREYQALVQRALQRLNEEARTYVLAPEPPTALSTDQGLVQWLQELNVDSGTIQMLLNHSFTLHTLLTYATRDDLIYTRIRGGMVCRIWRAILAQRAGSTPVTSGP
# [8] = target: Serine/threonine-protein kinase pim-1 (Homo sapiens) (UniProt P11309); assay: Inhibition of PIM1 (unknown origin) at 10 uM by Ambit Kinomescan binding assay
# Sequence of Serine/threonine-protein kinase pim-1 (Homo sapiens) (P11309 whole entry, looked up): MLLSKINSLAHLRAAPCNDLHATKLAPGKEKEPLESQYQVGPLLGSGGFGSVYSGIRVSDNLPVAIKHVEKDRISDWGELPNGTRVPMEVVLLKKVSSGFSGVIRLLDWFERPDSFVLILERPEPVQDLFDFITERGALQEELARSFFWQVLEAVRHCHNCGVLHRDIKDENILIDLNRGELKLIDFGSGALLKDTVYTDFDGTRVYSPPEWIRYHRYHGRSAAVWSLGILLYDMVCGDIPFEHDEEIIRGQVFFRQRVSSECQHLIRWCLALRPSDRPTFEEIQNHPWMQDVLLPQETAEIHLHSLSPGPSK
# Sequence of Dual specificity mitogen-activated protein kinase kinase 1 (Homo sapiens) (Q02750 whole entry): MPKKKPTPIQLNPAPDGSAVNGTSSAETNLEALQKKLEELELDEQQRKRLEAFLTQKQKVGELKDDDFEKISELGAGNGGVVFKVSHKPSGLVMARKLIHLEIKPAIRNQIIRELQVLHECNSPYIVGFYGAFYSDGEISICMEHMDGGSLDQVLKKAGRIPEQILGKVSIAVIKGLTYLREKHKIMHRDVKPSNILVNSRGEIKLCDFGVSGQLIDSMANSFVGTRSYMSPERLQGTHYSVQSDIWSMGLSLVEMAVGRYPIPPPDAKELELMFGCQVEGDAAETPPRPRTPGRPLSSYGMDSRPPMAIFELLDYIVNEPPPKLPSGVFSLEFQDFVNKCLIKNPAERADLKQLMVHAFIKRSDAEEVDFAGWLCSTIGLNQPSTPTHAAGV
# Sequence of Serine/threonine-protein kinase 24 (Homo sapiens) (Q9Y6E0 whole entry, looked up): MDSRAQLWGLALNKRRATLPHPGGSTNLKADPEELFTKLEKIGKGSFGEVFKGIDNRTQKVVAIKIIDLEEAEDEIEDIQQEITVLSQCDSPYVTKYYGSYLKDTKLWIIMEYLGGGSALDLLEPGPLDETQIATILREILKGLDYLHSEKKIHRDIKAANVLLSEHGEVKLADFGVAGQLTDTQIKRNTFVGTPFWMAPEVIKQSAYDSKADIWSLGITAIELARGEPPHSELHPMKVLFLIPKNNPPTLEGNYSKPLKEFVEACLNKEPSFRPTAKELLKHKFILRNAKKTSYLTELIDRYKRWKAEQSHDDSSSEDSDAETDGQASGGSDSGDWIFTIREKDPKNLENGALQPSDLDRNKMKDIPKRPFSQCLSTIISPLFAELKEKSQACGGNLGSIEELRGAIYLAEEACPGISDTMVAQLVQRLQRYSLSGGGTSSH
# Sequence of Calcium/calmodulin-dependent protein kinase type II subunit delta (Homo sapiens) (Q13557 whole entry): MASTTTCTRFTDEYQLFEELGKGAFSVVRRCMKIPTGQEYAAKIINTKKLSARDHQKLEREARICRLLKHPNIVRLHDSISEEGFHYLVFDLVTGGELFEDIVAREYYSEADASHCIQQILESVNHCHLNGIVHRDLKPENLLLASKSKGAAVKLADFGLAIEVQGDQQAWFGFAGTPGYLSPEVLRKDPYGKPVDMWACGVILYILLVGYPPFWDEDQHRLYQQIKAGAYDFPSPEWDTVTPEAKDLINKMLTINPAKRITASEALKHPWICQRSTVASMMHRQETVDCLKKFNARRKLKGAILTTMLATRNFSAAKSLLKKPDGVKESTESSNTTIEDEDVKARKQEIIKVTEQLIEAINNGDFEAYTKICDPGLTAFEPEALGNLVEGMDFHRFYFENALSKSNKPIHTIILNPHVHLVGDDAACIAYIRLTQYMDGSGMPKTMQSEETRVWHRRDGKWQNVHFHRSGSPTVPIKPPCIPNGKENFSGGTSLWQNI
# Sequence of Dual specificity mitogen-activated protein kinase kinase; MEK1/2 (Homo sapiens) (P36507 whole entry, looked up): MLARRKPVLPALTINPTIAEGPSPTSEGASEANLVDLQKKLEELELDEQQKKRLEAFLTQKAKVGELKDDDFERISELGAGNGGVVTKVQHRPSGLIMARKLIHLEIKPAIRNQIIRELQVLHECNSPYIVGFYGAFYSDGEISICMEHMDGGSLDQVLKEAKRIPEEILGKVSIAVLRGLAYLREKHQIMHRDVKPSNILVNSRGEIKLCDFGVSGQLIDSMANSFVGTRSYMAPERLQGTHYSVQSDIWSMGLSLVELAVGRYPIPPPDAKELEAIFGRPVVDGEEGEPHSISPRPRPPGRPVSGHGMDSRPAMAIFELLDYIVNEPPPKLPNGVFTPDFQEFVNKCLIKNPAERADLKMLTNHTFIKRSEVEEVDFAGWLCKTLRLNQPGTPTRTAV
# Sequence of Dual specificity mitogen-activated protein kinase kinase; MEK1/2 (Homo sapiens) (Q02750 whole entry, looked up): as the sequence (Q02750 whole entry) above
Structure (SMILES),inhibition [1] [%],inhibition [2] [%],inhibition [3] [%],inhibition [4] [%],inhibition [5] [%],inhibition [6] [%],inhibition [7] [%],inhibition [8]
CNc1cc(Oc2cc(C(=O)Nc3cc(N4CCN(C)CC4)cc(C(F)(F)F)c3)ccc2C)ncn1,11,5.5,,,,,,
CCN1CCN(Cc2ccc(NC(=O)c3ccc(C)c(Oc4ccnc5[nH]ccc45)c3)cc2C(F)(F)F)CC1,,,5.5,-7.1,-7.6,2.9,-3.2,inactive
